EP3046573B1, “AMYLIN ANALOGUES” (Zealand Pharma A/S, priority 2013, dated 2015)
Numbered stars: 1 amine (or outer) side, 2 acyl side, 3 side chain; on linkers, the order of the positions; unused ones are H or OH. Bridge positions count the residues as written; N and C are the ends. Square brackets hold non-standard residues; d marks the D form. Peptide text beside a SMILES is read from it. * marks the point of attachment. C20 diacid = O=C(O)CCCCCCCCCCCCCCCCCCC(=O)*; Arachidoyl = CCCCCCCCCCCCCCCCCCCC(=O)*; γGlu = O=C(O)[C@H](CCC(=O)[*:2])N[*:1]; NMeI = CC[C@H](C)[C@H](NC)C(=O)O; Orn = NCCC[C@H](N)C(=O)O; Sar = CNCC(=O)O

Assay: Solubility assessment (turbidity absorbance at 325 nm)
Format: physicochemical
Settings: stock 2 mg/ml diluted 1:1, ambient temperature (typically 25°C), n=1; for Solubility, Acetate buffer pH 4: 100 mM acetate buffer pH 4.0; for Solubility, Acetate buffer pH 5: 100 mM acetate buffer pH 5.0; for Solubility, Histidine buffer pH 6: 100 mM histidine buffer pH 6.0; for Solubility, Histidine buffer pH 7: 100 mM histidine buffer pH 7.0; for Solubility, Phosphate buffer pH 6: 100 mM phosphate buffer pH 6.0; for Solubility, Phosphate buffer pH 7: 100 mM phosphate buffer pH 7.0; for Solubility, Phosphate buffer pH 7.5: 100 mM phosphate buffer pH7.5
Protocol: A stock solution of the test peptide (2 mg/ml; determined from the weighed amount of peptide) in demineralized water adjusted to pH 2.5 with HCI was prepared, and aliquots were diluted 1:1 in 100 mM acetate buffer (pH 4.0 and pH 5.0), 100 mM histidine buffer (pH 6.0 and pH 7.0) and 100 mM phosphate buffer (pH 6.0, pH 7.0 and pH7.5), respectively, and loaded in a standard flat-bottom, non-sterile 96-well UV Microplate. The absorbance of samples (single samples, n=1) at 280 and 325 nm was measured in an absorbance-based plate reader, which was preheated to ambient temperature (typically 25°C). The turbidity absorbance criterion for a peptide solubility of ≥ 1 mg/ml was an absorbance at 325 nm of ≤ 0.02 absorbance units (which is 5 to 6 times the standard deviation of 8 buffer samples in a plate). Solubility data for peptides of the invention, pramlintide, and for a comparison pramlintide derivative denoted NN96 (see Example 5 below for details) are shown in Table 1, below. Table 1. Solubility data for compounds of the invention.

CC[C@H](C)[C@@H](C(=O)N[C@@H](CC(C)C)C(=O)N[C@@H](CO)C(=O)N[C@@H](CO)C(=O)N[C@H](C(=O)N[C@@H](CC(N)=O)C(=O)N[C@H](C(=O)NCC(=O)N[C@@H](CO)C(=O)N[C@@H](CC(N)=O)C(=O)N[C@H](C(=O)N1CCC[C@H]1C(N)=O)[C@@H](C)O)C(C)C)[C@@H](C)O)N(C)C(=O)[C@H](C)NC(=O)CN(C)C(=O)[C@H](Cc1ccccc1)NC(=O)[C@H](CC(N)=O)NC(=O)[C@H](CC(N)=O)NC(=O)[C@H](CO)NC(=O)[C@H](CO)NC(=O)[C@H](CCCNC(=N)N)NC(=O)[C@H](Cc1c[nH]cn1)NC(=O)[C@H](CC(C)C)NC(=O)[C@H](Cc1ccccc1)NC(=O)[C@H](CCC(=O)O)NC(=O)[C@H](C)NC(=O)[C@H](CC(C)C)NC(=O)[C@H](CCCNC(=N)N)NC(=O)[C@H](CCC(N)=O)NC(=O)[C@@H](NC(=O)[C@H](C)NC(=O)[C@@H]1CSSC[C@H](NC(=O)[C@H](CCCCN)NC(=O)CC[C@H](NC(=O)CCCCCCCCCCCCCCCCCCC(=O)O)C(=O)O)C(=O)N[C@@H](CC(N)=O)C(=O)N[C@@H]([C@@H](C)O)C(=O)N[C@@H](C)C(=O)N[C@@H]([C@@H](C)O)C(=O)N1)[C@@H](C)O [Compound 57, [19CD]-isoGlu-KC()NTATC()ATQRLAEFLHRSSNNF-Gly(Me)-A-Ile(Me)-LSSTNVGSNTP-NH2] ({C20 diacid-γGlu}-KCNTATCATQRLAEFLHRSSNNF[Sar]A[NMeI]LSSTNVGSNTP-NH2; disulfide 2-7)
SS (SS indicates solubility ≥ 1mg/ml): Solubility, Acetate buffer pH 4 | Solubility, Acetate buffer pH 5 | Solubility, Histidine buffer pH 6 | Solubility, Histidine buffer pH 7 | Solubility, Phosphate buffer pH 6 | Solubility, Phosphate buffer pH 7 | Solubility, Phosphate buffer pH 7.5

CC[C@H](C)[C@@H](C(=O)N[C@@H](CC(C)C)C(=O)N[C@@H](CO)C(=O)N[C@@H](CO)C(=O)N[C@H](C(=O)N[C@@H](CC(N)=O)C(=O)N[C@H](C(=O)NCC(=O)N[C@@H](CO)C(=O)N[C@@H](CC(N)=O)C(=O)N[C@H](C(=O)N1CCC[C@H]1C(N)=O)[C@@H](C)O)C(C)C)[C@@H](C)O)N(C)C(=O)[C@H](C)NC(=O)CN(C)C(=O)[C@H](Cc1ccccc1)NC(=O)[C@H](CC(N)=O)NC(=O)[C@H](CC(N)=O)NC(=O)[C@H](CO)NC(=O)[C@H](CO)NC(=O)[C@H](Cc1c[nH]cn1)NC(=O)[C@H](Cc1c[nH]cn1)NC(=O)[C@H](CC(C)C)NC(=O)[C@H](Cc1ccccc1)NC(=O)[C@H](CCC(=O)O)NC(=O)[C@H](C)NC(=O)[C@H](CC(C)C)NC(=O)[C@H](CCCNC(=N)N)NC(=O)[C@H](CCC(N)=O)NC(=O)[C@@H](NC(=O)[C@H](C)NC(=O)[C@@H]1CSSC[C@H](NC(=O)[C@H](CCCN)NC(=O)CC[C@H](NC(=O)CCCCCCCCCCCCCCCCCCC(=O)O)C(=O)O)C(=O)N[C@@H](CC(N)=O)C(=O)N[C@@H]([C@@H](C)O)C(=O)N[C@@H](C)C(=O)N[C@@H]([C@@H](C)O)C(=O)N1)[C@@H](C)O [Compound 65, [19CD]-isoGlu-Orn-C()NTATC()ATQRLAEFLHHSSNNF-Gly(Me)-A-Ile(Me)-LSSTNVGSNTP-NH2] ({C20 diacid-γGlu}-[Orn]CNTATCATQRLAEFLHHSSNNF[Sar]A[NMeI]LSSTNVGSNTP-NH2; disulfide 2-7)
SS (SS indicates solubility ≥ 1mg/ml): Solubility, Acetate buffer pH 4 | Solubility, Acetate buffer pH 5 | Solubility, Histidine buffer pH 6 | Solubility, Histidine buffer pH 7 | Solubility, Phosphate buffer pH 6 | Solubility, Phosphate buffer pH 7 | Solubility, Phosphate buffer pH 7.5

CCCCCCCCCCCCCCCCCCCC(=O)N[C@@H](CCC(=O)N[C@@H](CCCNC(=N)N)C(=O)N[C@H]1CSSC[C@@H](C(=O)N[C@@H](C)C(=O)N[C@H](C(=O)N[C@@H](CCC(N)=O)C(=O)N[C@@H](CCCNC(=N)N)C(=O)N[C@@H](CC(C)C)C(=O)N[C@@H](C)C(=O)N[C@@H](CCC(=O)O)C(=O)N[C@@H](Cc2ccccc2)C(=O)N[C@@H](CC(C)C)C(=O)N[C@@H](Cc2c[nH]cn2)C(=O)N[C@@H](CCCNC(=N)N)C(=O)N[C@@H](CO)C(=O)N[C@@H](CO)C(=O)N[C@@H](CC(N)=O)C(=O)N[C@@H](CC(N)=O)C(=O)N[C@@H](Cc2ccccc2)C(=O)N(C)CC(=O)N[C@@H](C)C(=O)N(C)[C@H](C(=O)N[C@@H](CC(C)C)C(=O)N[C@@H](CO)C(=O)N[C@@H](CO)C(=O)N[C@H](C(=O)N[C@@H](CC(N)=O)C(=O)N[C@H](C(=O)NCC(=O)N[C@@H](CO)C(=O)N[C@@H](CC(N)=O)C(=O)N[C@H](C(=O)N2CCC[C@H]2C(N)=O)[C@@H](C)O)C(C)C)[C@@H](C)O)[C@@H](C)CC)[C@@H](C)O)NC(=O)[C@H]([C@@H](C)O)NC(=O)[C@H](C)NC(=O)[C@H]([C@@H](C)O)NC(=O)[C@H](CC(N)=O)NC1=O)C(=O)O [Compound 94, [Eicosanoyl]-isoGlu-RC()NTATC()ATQRLAEFLHRSSNNF-Gly(Me)-A-Ile(Me)-LSSTNVGSNTP-NH2] ({Arachidoyl-γGlu}-RCNTATCATQRLAEFLHRSSNNF[Sar]A[NMeI]LSSTNVGSNTP-NH2; disulfide 2-7)
SS (SS indicates solubility ≥ 1mg/ml): Solubility, Acetate buffer pH 4 | Solubility, Acetate buffer pH 5 | Solubility, Histidine buffer pH 6 | Solubility, Histidine buffer pH 7 | Solubility, Phosphate buffer pH 6 | Solubility, Phosphate buffer pH 7 | Solubility, Phosphate buffer pH 7.5
